Values after ≈ are worked out from the molar mass of the structure shown. Active and inactive are the calls of the source. The calls are words filed in the database; no cut-off is given here.
Legend:
[1] = Genotoxicity in rec-positive Bacillus subtilis H17 assessed as diameter of inhibition zone at 256 ug measured after 24 hrs by rec-assay; assay type: toxicity; settings: in vivo
[2] = system: Staphylococcus epidermidis; test: Antibacterial activity against methicillin-resistant Staphylococcus epidermidis isolate 610 assessed as bacterial growth inhibition measured after 18 hrs by CLSI protocol based two-fold serial microdilution method; assay type: functional; settings: isolate 610, 18 h
Pseudomonas aeruginosa [3] = test: Antibacterial activity against Pseudomonas aeruginosa ATCC 27853 assessed as bacterial growth inhibition measured after 18 hrs by CLSI protocol based two-fold serial microdilution method; assay type: functional, organism-based
[4] = system: Staphylococcus epidermidis; test: Antibacterial activity against methicillin-resistant Staphylococcus epidermidis isolate 574 assessed as bacterial growth inhibition measured after 18 hrs by CLSI protocol based two-fold serial microdilution method; assay type: functional; settings: isolate 574, 18 h
[5] = system: Staphylococcus epidermidis; test: Antibacterial activity against Staphylococcus epidermidis ATCC 35984 assessed as bacterial growth inhibition measured after 18 hrs by CLSI protocol based two-fold serial microdilution method; assay type: functional
Staphylococcus aureus [6] = test: Antibacterial activity against methicillin-resistant Staphylococcus aureus isolate 584 assessed as bacterial growth inhibition measured after 18 hrs by CLSI protocol based two-fold serial microdilution method; assay type: functional; settings: isolate 584, 18 h
Staphylococcus aureus [7] = test: Antibacterial activity against methicillin-resistant Staphylococcus aureus isolate 612 assessed as bacterial growth inhibition measured after 18 hrs by CLSI protocol based two-fold serial microdilution method; assay type: functional; settings: isolate 612, 18 h
Enterococcus hirae = test: Antibacterial activity against Enterococcus hirae ATCC 10541 assessed as bacterial growth inhibition measured after 18 hrs by CLSI protocol based two-fold serial microdilution method; assay type: functional
Staphylococcus aureus [8] = test: Antibacterial activity against methicillin-resistant Staphylococcus aureus isolate 620 assessed as bacterial growth inhibition measured after 18 hrs by CLSI protocol based two-fold serial microdilution method; assay type: functional; settings: isolate 620, 18 h
Staphylococcus aureus [9] = test: Antibacterial activity against methicillin-resistant Staphylococcus aureus isolate 583 assessed as bacterial growth inhibition measured after 18 hrs by CLSI protocol based two-fold serial microdilution method; assay type: functional; settings: isolate 583, 18 h
Staphylococcus aureus [10] = test: Antibacterial activity against methicillin-resistant Staphylococcus aureus isolate 750 assessed as bacterial growth inhibition measured after 18 hrs by CLSI protocol based two-fold serial microdilution method; assay type: functional; settings: isolate 750, 18 h
[11] = system: Staphylococcus epidermidis; test: Antibacterial activity against methicillin-resistant Staphylococcus epidermidis isolate 609 assessed as bacterial growth inhibition measured after 18 hrs by CLSI protocol based two-fold serial microdilution method; assay type: functional; settings: isolate 609, 18 h
Escherichia coli [12] = test: Antibacterial activity against Escherichia coli ATCC 25922 assessed as bacterial growth inhibition measured after 18 hrs by CLSI protocol based two-fold serial microdilution method; assay type: functional, organism-based
[13] = system: Staphylococcus epidermidis; test: Inhibition of biofilm formation in Staphylococcus epidermidis ATCC 12228 at 1 to 8 ug/ml measured after 24 hrs by crystal violet staining based assay; assay type: functional, organism-based
Staphylococcus aureus [14] = test: Antibacterial activity against Staphylococcus aureus NCTC 4163 assessed as bacterial growth inhibition measured after 18 hrs by CLSI protocol based two-fold serial microdilution method; assay type: functional
[15] = system: Staphylococcus epidermidis; test: Antibacterial activity against methicillin-resistant Staphylococcus epidermidis isolate 654 assessed as bacterial growth inhibition measured after 18 hrs by CLSI protocol based two-fold serial microdilution method; assay type: functional; settings: isolate 654, 18 h
Staphylococcus aureus [16] = test: Antibacterial activity against methicillin-resistant Staphylococcus aureus isolate 770 assessed as bacterial growth inhibition measured after 18 hrs by CLSI protocol based two-fold serial microdilution method; assay type: functional; settings: isolate 770, 18 h
Staphylococcus aureus [17] = test: Antibacterial activity against Staphylococcus aureus ATCC 29213 assessed as bacterial growth inhibition measured after 18 hrs by CLSI protocol based two-fold serial microdilution method; assay type: functional
[18] = system: Staphylococcus epidermidis; test: Antibacterial activity against methicillin-resistant Staphylococcus epidermidis isolate 603 assessed as bacterial growth inhibition measured after 18 hrs by CLSI protocol based two-fold serial microdilution method; assay type: functional; settings: isolate 603, 18 h
[19] = system: Staphylococcus epidermidis; test: Antibacterial activity against methicillin-resistant Staphylococcus epidermidis isolate 602 assessed as bacterial growth inhibition measured after 18 hrs by CLSI protocol based two-fold serial microdilution method; assay type: functional; settings: isolate 602, 18 h
Pseudomonas aeruginosa [20] = test: Antibacterial activity against Pseudomonas aeruginosa ATCC 15442 assessed as bacterial growth inhibition measured after 18 hrs by CLSI protocol based two-fold serial microdilution method; assay type: functional, organism-based
[21] = system: Staphylococcus epidermidis; test: Antibacterial activity against Staphylococcus epidermidis ATCC 12228 assessed as bacterial growth inhibition measured after 18 hrs by CLSI protocol based two-fold serial microdilution method; assay type: functional
[22] = system: Staphylococcus epidermidis; test: Antibacterial activity against methicillin-resistant Staphylococcus epidermidis isolate 660 assessed as bacterial growth inhibition measured after 18 hrs by CLSI protocol based two-fold serial microdilution method; assay type: functional; settings: isolate 660, 18 h
Staphylococcus aureus [23] = test: Antibacterial activity against methicillin-resistant Staphylococcus aureus isolate 621 assessed as bacterial growth inhibition measured after 18 hrs by CLSI protocol based two-fold serial microdilution method; assay type: functional; settings: isolate 621, 18 h
[24] = system: Staphylococcus epidermidis; test: Inhibition of biofilm formation in Staphylococcus epidermidis ATCC 35984 at 1 to 8 ug/ml measured after 24 hrs by crystal violet staining based assay; assay type: functional, organism-based
Staphylococcus aureus [25] = test: Antibacterial activity against Staphylococcus aureus ATCC 6358 assessed as bacterial growth inhibition measured after 18 hrs by CLSI protocol based two-fold serial microdilution method; assay type: functional
Escherichia coli [26] = test: Antibacterial activity against Escherichia coli NCTC 8196 assessed as bacterial growth inhibition measured after 18 hrs by CLSI protocol based two-fold serial microdilution method; assay type: functional, organism-based
Staphylococcus aureus [27] = test: Antibacterial activity against Staphylococcus aureus ATCC 25923 assessed as bacterial growth inhibition measured after 18 hrs by CLSI protocol based two-fold serial microdilution method; assay type: functional
[28] = Genotoxicity in rec negative Bacillus subtilis M45 assessed as diameter of inhibition zone at 256 ug measured after 24 hrs by rec-assay; assay type: toxicity; settings: in vivo
Micrococcus luteus = test: Antibacterial activity against Micrococcus luteus ATCC 9341 assessed as bacterial growth inhibition measured after 18 hrs by CLSI protocol based two-fold serial microdilution method; assay type: functional

| SMILES | diameter of the inhibition zone (DIZ) [1] [mm] | MIC [2] [µM] | Activity (Pseudomonas aeruginosa [3]) | MIC [4] [µM] | MIC (Staphylococcus aureus [6]) [µM] | MIC (Staphylococcus aureus [7]) [µM] | MIC (Staphylococcus aureus [8]) [µM] | MIC (Staphylococcus aureus [9]) [µM] | MIC (Staphylococcus aureus [10]) [µM] | MIC [11] [µM] | Activity (Escherichia coli [12]) | inhibition [13] | MIC [15] [µM] | MIC (Staphylococcus aureus [16]) [µM] | MIC [18] [µM] | MIC [19] [µM] | Activity (Pseudomonas aeruginosa [20]) | MIC [22] [µM] | MIC (Staphylococcus aureus [23]) [µM] | inhibition [24] | further results |
| --- | --- | --- | --- | --- | --- | --- | --- | --- | --- | --- | --- | --- | --- | --- | --- | --- | --- | --- | --- | --- | --- |
| CC[C@@H](C(=O)[C@@H](C)[C@@H](O)[C@H](C)[C@@H]1O[C@@H]([C@@H](CC)C(=O)ONC(=O)c2ccccc2)CC[C@@H]1C)[C@H]1O[C@]2(C=C[C@@H](O)[C@]3(CC[C@@](C)([C@H]4CC[C@](O)(CC)[C@H](C)O4)O3)O2)[C@H](C)C[C@@H]1C | 25 | 4.6 (≈ 4 µg/mL) | inactive | 2.3 (≈ 2 µg/mL) | 18.4 (≈ 16 µg/mL) | 4.6 (≈ 4 µg/mL) | 4.6 (≈ 4 µg/mL) | 18.4 (≈ 16 µg/mL) | 4.6 (≈ 4 µg/mL) | 4.6 (≈ 4 µg/mL) | inactive | Active | 18.4 (≈ 16 µg/mL) | 9.19 (≈ 8 µg/mL) | 4.6 (≈ 4 µg/mL) | 4.6 (≈ 4 µg/mL) | inactive | 18.4 (≈ 16 µg/mL) | 2.3 (≈ 2 µg/mL) | Active | MIC ([5]; ATCC 35984, 18 h): 1 to 16 µg/mL (≈ 1.15 to 18.4 µM); MIC (Enterococcus hirae; ATCC 10541, 18 h): 1 to 16 µg/mL (≈ 1.15 to 18.4 µM); MIC (Staphylococcus aureus [14]; NCTC 4163, 18 h): 1 to 16 µg/mL (≈ 1.15 to 18.4 µM); MIC (Staphylococcus aureus [17]; ATCC 29213, 18 h): 1 to 16 µg/mL (≈ 1.15 to 18.4 µM); MIC ([21]; ATCC 12228, 18 h): 1 to 16 µg/mL (≈ 1.15 to 18.4 µM); MIC (Staphylococcus aureus [25]; ATCC 6358, 18 h): 1 to 16 µg/mL (≈ 1.15 to 18.4 µM); Activity (Escherichia coli [26]): inactive; MIC (Staphylococcus aureus [27]; ATCC 25923, 18 h): 1 to 16 µg/mL (≈ 1.15 to 18.4 µM); diameter of the inhibition zone (DIZ) [28]: 32 mm; MIC (Micrococcus luteus; ATCC 9341, 18 h): 1 to 16 µg/mL (≈ 1.15 to 18.4 µM) |
| CC[C@@H](C(=O)[C@@H](C)[C@@H](O)[C@H](C)[C@@H]1O[C@@H]([C@@H](CC)C(=O)ONC(=O)c2ccccc2O)CC[C@@H]1C)[C@H]1O[C@]2(C=CC(=O)[C@]3(CC[C@@](C)([C@H]4CC[C@](O)(CC)[C@H](C)O4)O3)O2)[C@H](C)C[C@@H]1C | 17 | 4.52 (≈ 4 µg/mL) | inactive | 2.26 (≈ 2 µg/mL) | 72.4 (≈ 64 µg/mL) | 4.52 (≈ 4 µg/mL) | 4.52 (≈ 4 µg/mL) | 36.2 (≈ 32 µg/mL) | 4.52 (≈ 4 µg/mL) | 2.26 (≈ 2 µg/mL) | inactive | Active | 72.4 (≈ 64 µg/mL) | 72.4 (≈ 64 µg/mL) | 2.26 (≈ 2 µg/mL) | 4.52 (≈ 4 µg/mL) | inactive | 72.4 (≈ 64 µg/mL) | 4.52 (≈ 4 µg/mL) | Active | Activity [5]: Active; Activity (Enterococcus hirae): Active; Activity (Staphylococcus aureus [14]): Active; Activity (Staphylococcus aureus [17]): Active; Activity [21]: Active; Activity (Staphylococcus aureus [25]): Active; Activity (Escherichia coli [26]): inactive; Activity (Staphylococcus aureus [27]): Active; diameter of the inhibition zone (DIZ) [28]: 19 mm; Activity (Micrococcus luteus): Active |

From ChEMBL document CHEMBL4627327, “Antibacterial activity of singly and doubly modified salinomycin derivatives” (Bioorg Med Chem Lett, 2020)
